We go through one molecule from patent publication US20230143604A1, “QW DOSING OF GIP RECEPTOR AGONIST PEPTIDE COMPOUNDS AND USES THEREOF” (TAKEDA PHARMACEUTICAL COMPANY LIMITED, priority 2020, published 2023).

For series [1], the target named is T1, human GLP-1R (Homo sapiens, UniProt P43220).
T1 construct: HEK-293T cells overexpressing full-length human GLP-1R; FLAG (N); host or cells: HEK-293T
The series is described as follows: Human GLP1R agonist activity, intracellular cAMP accumulation. The settings on record: HEK-293T cells overexpressing human GLP-1R, 1 hr, read-out: Human GLP1R cAMP EC50, HEK293T. It is filed as cell-based. The gist of the method: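 cAMP accumulation is measured by HTRF after a 1 hr, room-temperature, dark exposure of thawed cells (4×10^5 cells/mL in Krebs Ringer buffer) to compound. Activity is scaled between DMSO alone as 0% and 1 nm GLP-1 as 100%.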
(Cyclic AMP is a second messenger, typically raised through Gs and lowered through Gi signalling.)

Series [2] has as its system Dogs. It is filed as in vivo. The settings on record: 30 nmol/kg s.c. The procedure:
Dogs are transferred to an observation cage (700 mm W×700 mm D×700 mm H [W×D×H], without food) on 1 day before each apomorphine challenge. The dogs are weighed by using an electronic balance then test peptide compounds and vehicle will be administrated via the subcutaneous route. Apomorphine is challenged at 8 hr after the administration and emetic events will be monitored for 1 h by video recording. The second apomorphine challenge will be 72 hr after the administration and emetic events will be recorded by the same protocol. Emesis symptoms are continuously recorded using a video camera and stored on a blue ray disc. Observation of symptoms include retching (a rhythmic contraction of the abdomen) and vomiting (vomiting behavior, including the elimination of vomitus or similar behavior). Besides, the combination of retching and vomiting is defined as emesis, and the number of episodes, latency (time elapsed from morphine administration until the onset of the first emesis symptom), duration (time elapsed between the onset of the first and final episodes of emesis), and frequency (number of animals showing emesis/number of experimental animals) of each of these symptoms is calculated. The latency in cases where emesis symptoms are not noted is taken as the maximum value (1 h for apomorphine challenge) at the end of observation. When the duration of the emesis symptoms is less than 1 min, the duration is recorded, for convenience, as 1 min.

Series [3] can be described thus: Pharmacokinetics in dog after IV and SC dosing. Conditions: in vivo, 3 nmol/kg. The gist of the method:
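Dogs were dosed IV or SC at 1 mL/kg with peptide at 3 nmol/mL in 10% DMSO/0.09% Polysorbate/PBS pH 7.4. K2-EDTA plasma was sampled to 336 h, and peptide was quantified by LCMS to derive half-life.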

Molecules are shown by their SMILES. Read-outs that look alike come from different tables or passages of the source.

T1 sequence (P43220 24-463): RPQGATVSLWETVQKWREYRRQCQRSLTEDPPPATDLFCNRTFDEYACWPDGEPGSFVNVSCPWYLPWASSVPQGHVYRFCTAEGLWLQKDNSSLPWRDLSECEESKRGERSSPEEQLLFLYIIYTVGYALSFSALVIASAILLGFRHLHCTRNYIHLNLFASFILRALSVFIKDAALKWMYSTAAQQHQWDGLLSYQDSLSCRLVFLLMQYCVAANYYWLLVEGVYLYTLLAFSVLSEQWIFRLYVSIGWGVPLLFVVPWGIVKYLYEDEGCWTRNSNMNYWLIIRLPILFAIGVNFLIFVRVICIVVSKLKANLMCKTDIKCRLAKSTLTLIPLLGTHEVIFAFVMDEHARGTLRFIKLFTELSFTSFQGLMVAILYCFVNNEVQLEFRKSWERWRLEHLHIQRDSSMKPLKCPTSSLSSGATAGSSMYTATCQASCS

As to `CC[C@H](C)[C@H](NC(=O)[C@H](CO)NC(=O)[C@H](Cc1ccc(O)cc1)NC(=O)[C@H](CC(=O)O)NC(=O)[C@H](CO)NC(=O)[C@@H](NC(=O)[C@H](Cc1ccccc1)NC(=O)[C@@H](NC(=O)CNC(=O)[C@H](CCC(=O)O)NC(=O)C(C)(C)NC(=O)[C@H](Cc1ccc(O)cc1)NC)[C@@H](C)O)[C@@H](C)CC)C(=O)N[C@@H](C)C(=O)N[C@@H](CC(C)C)C(=O)N[C@@H](CC(=O)O)C(=O)N[C@@H](CCCNC(=N)N)C(=O)N[C@@H](CCCCNC(=O)CNC(=O)CNC(=O)CNC(=O)CNC(=O)CNC(=O)CCCCCCCCCCCCCCCCC(=O)O)C(=O)N[C@@H](C)C(=O)N[C@@H](CCC(N)=O)C(=O)NC(C)(C)C(=O)N[C@@H](CC(=O)O)C(=O)N[C@@H](Cc1ccccc1)C(=O)N[C@H](C(=O)N[C@@H](CC(N)=O)C(=O)N[C@@H](Cc1c[nH]c2ccccc12)C(=O)N[C@@H](CC(C)C)C(=O)N[C@@H](CC(C)C)C(=O)N[C@@H](C)C(=O)N[C@@H](CCC(N)=O)C(=O)N[C@@H](CO)C(=O)N1CCC[C@H]1C(=O)N[C@@H](CO)C(=O)N[C@@H](CO)C(=O)NCC(=O)N[C@@H](C)C(=O)N1CCC[C@H]1C(=O)N1CCC[C@H]1C(=O)N1CCC[C@H]1C(=O)N[C@@H](CO)C(N)=O)C(C)C` [Compound 50, Me-Y-Aib-E-G-T-F-I-S-D-Y-S-I-A-L-D-R-Km-A-Q-Aib-D-F-V-N-W-L-L-A-Q-S-P-S-S-G-A-P-P-P-S-NH2], the EC50 in series [1] worked out at 20.4 nM. Besides, the results for the “% inhibition of emetic events at doses (nmol/kg) shown in dog apomorphine model” value in series [2] (after 8 hrs (upper)) and in series [2] (after 72 hours (lower)) were 82% (30 nmol/kg) and 86% (30 nmol/kg), respectively. The molecule also had a half-life in series [3] (iv) of 74 h. Besides, in series [3] (sc), the MRT last was found to be 103 h.

Broadly, the EC50 is the concentration that produces a half-maximal response. By half-life is commonly meant the time in which the quantity being followed falls by half. High values mean slow loss, low ones fast loss. The MRT last is the average time that molecules of a dose stay in the body.
